Source: US20080187512A1, “Treatment for spinal muscular atrophy” (Academia Sinica, priority 2007, published 2008)

System: Stat6 (pT641)
Experiment: Signaling pathway screen in SMN2-NSC34 cells
Assay type: cell-based, mouse

Sodium vanadate
Stat6 (pT641) cellular response (4 hrs): − | Stat6 (pT641) cellular response (8 hrs): −
